Results: US20140315883A1, “6H-IMIDAZO[1,5-a]PYRROLO[2,3-e]PYRAZINE COMPOUNDS” (ABBVIE INC., priority 2013, published 2014)

These compounds were tested against T1, Syk (Homo sapiens, UniProt P43405) (assay: In vitro Syk kinase activity measured by trFRET). Conditions: Syk catalytic domain, 0.001 mM ATP.
T1 construct: Purified Syk catalytic domain (aa 356-635 with a C-terminal His-tag purified in-house); His-tag (C); made in house
Type: biochemical
Procedure: In Vitro Syk Kinase Activity Measured by Time-Resolved Fluorescence Resonance Energy Transfer (trFRET)
After about 60 min incubation at rt, the reaction was quenched by addition of EDTA (final concentration: 100 mM) and developed by addition of revelation reagents (final approximate concentrations: 30 mM HEPES pH 7.0, 0.06% BSA, 0.006% Tween-20, 0.24 M KF, 80 ng/mL PT66K (europium labeled anti-phosphotyrosine antibody cat #61T66KLB Cisbio, Bedford, Mass.) and 0.6 μg/mL SAXL (Phycolink streptavidin-allophycocyanin acceptor, cat #PJ25S, Prozyme, San Leandro, Calif.). The developed reaction was incubated in the dark either at about 4° C. for about 14 h or for about 60 min at rt, then read via a time-resolved fluorescence detector (Rubystar, BMG) using a 337 nm laser for excitation and monitoring emission wavelengths at 665 nm. Within the linear range of the assay, the observed signal at 665 nm was directly related to phosphorylated product and can be used to calculate the IC50 values.

| Structure (SMILES) | IC50 |
| --- | --- |
| CC(=O)N1C[C@H](O)C[C@@H]1c1nc(-c2ccc(O[C@H](C)C3CC3)cc2)c2cnc3[nH]ccc3n12 (single isomer, unassigned) [Example #2] | 30 to 100 nM |
| CC(=O)N1C[C@H](O)C[C@@H]1c1nc(-c2ccsc2)c2cnc3[nH]ccc3n12 [A.1.1] | 10 to 30 nM |
| CCOc1ccc(-c2nc([C@H]3C[C@@H](O)CN3C(C)=O)n3c2cnc2[nH]ccc23)cc1 [A.1.2, 1-((2R,4R)-2-(3-(4-ethoxyphenyl)-6H-imidazo[1,5-a]pyrrolo[2,3-e]pyrazin-1-yl)-4-hydroxypyrrolidin-1-yl)ethanone] | 10 to 30 nM |
| CC(=O)N1C[C@H](O)C[C@@H]1c1nc(-c2ccc(OCCn3nccn3)cc2)c2cnc3[nH]ccc3n12 [A.1.3, 1-((2R,4R)-2-(3-(4-(2-(2H-1,2,3-triazol-2-yl)ethoxy)phenyl)-6H-imidazo[1,5-a]pyrrolo[2,3-e]pyrazin-1-yl)-4-hydroxypyrrolidin-1-yl)ethanone] | 30 to 100 nM |
| CC(=O)N1C[C@H](O)C[C@@H]1c1nc(-c2ccc(C(F)F)cc2)c2cnc3[nH]ccc3n12 [A.1.5, 1-((2R,4R)-2-(3-(4-(difluoromethyl)phenyl)-6H-imidazo[1,5-a]pyrrolo[2,3-e]pyrazin-1-yl)-4-hydroxypyrrolidin-1-yl)ethanone] | 30 to 100 nM |
| CC(=O)N1C[C@H](O)C[C@@H]1c1nc(-c2ccc(C3(C)COC3)cc2)c2cnc3[nH]ccc3n12 [A.1.6] | < 10 nM |
| CC(=O)N1C[C@H](O)C[C@@H]1c1nc(-c2ccc(OCC3(C)COC3)cc2)c2cnc3[nH]ccc3n12 [D.1.1, 1-((2R,4R)-4-hydroxy-2-(3-(4-((3-methyloxetan-3-yl)methoxy)phenyl)-6H-imidazo[1,5-a]pyrrolo[2,3-e]pyrazin-1-yl)pyrrolidin-1-yl)ethanone] | 10 to 30 nM |
| CC(=O)N1C[C@H](O)C[C@@H]1c1nc(-c2csc(CO)c2)c2cnc3[nH]ccc3n12 [D.1.2, 1-((2R,4R)-4-hydroxy-2-(3-(5-(hydroxymethyl)thiophen-3-yl)-6H-imidazo[1,5-a]pyrrolo[2,3-e]pyrazin-1-yl)pyrrolidin-1-yl)ethanone] | 10 to 30 nM |
| CC(=O)N1C[C@H](O)C[C@@H]1c1nc(-c2ccc(OCC3CC3)cc2)c2cnc3[nH]ccc3n12 [D.1.3, 1-((2R,4R)-2-(3-(4-(cyclopropylmethoxy)phenyl)-6H-imidazo[1,5-a]pyrrolo[2,3-e]pyrazin-1-yl)-4-hydroxypyrrolidin-1-yl)ethanone] | 10 to 30 nM |
| COc1ccc(-c2nc([C@H]3C[C@@H](O)CN3C(=O)CF)n3c2cnc2[nH]ccc23)cc1 [E.1.1] | 10 to 30 nM |
| COCCOc1ccc(-c2nc([C@H]3C[C@@H](O)CN3C(=O)CF)n3c2cnc2[nH]ccc23)cc1 [E.1.2, 2-fluoro-1-((2R,4R)-4-hydroxy-2-(3-(4-(2-methoxyethoxy)phenyl)-6H-imidazo[1,5-a]pyrrolo[2,3-e]pyrazin-1-yl)pyrrolidin-1-yl)ethanone] | 10 to 30 nM |
| CNc1ccc(-c2nc([C@H]3C[C@@H](O)CN3C(C)=O)n3c2cnc2[nH]ccc23)cc1 [Example #1, 1-((2R,4R)-4-Hydroxy-2-(3-(4-(methylamino)phenyl)-6H-imidazo[1,5-a]pyrrolo[2,3-e]pyrazin-1-yl)pyrrolidin-1-yl)ethanone] | 10 to 30 nM |
| COc1ccc(-c2nc([C@H]3C[C@@H](O)CN3C(C)=O)n3c2cnc2[nH]ccc23)s1 [Example #3, 1-((2R,4R)-4-Hydroxy-2-(3-(5-methoxythiophen-2-yl)-6H-imidazo[1,5-a]pyrrolo[2,3-e]pyrazin-1-yl)pyrrolidin-1-yl)ethanone] | 10 to 30 nM |
| CC(=O)N1C[C@H](O)C[C@@H]1c1nc(-c2cnc(C(C)(C)C)s2)c2cnc3[nH]ccc3n12 [Example #4, 1-((2R,4R)-2-(3-(2-(tert-Butyl)thiazol-5-yl)-6H-imidazo[1,5-a]pyrrolo[2,3-e]pyrazin-1-yl)-4-hydroxypyrrolidin-1-yl)ethanone] | 30 to 100 nM |
| CC(=O)N1C[C@H](O)C[C@@H]1c1nc(-c2ccc(N3CCO[C@H](C)C3)cc2)c2cnc3[nH]ccc3n12 [Example #5 (R), 1-((2R,4R)-4-hydroxy-2-(3-(4-((R)-2-methylmorpholino)phenyl)-6H-imidazo[1,5-a]pyrrolo[2,3-e]pyrazin-1-yl)pyrrolidin-1-yl)ethanone] | < 10 nM |
| CC(=O)N1C[C@H](O)C[C@@H]1c1nc(-c2ccc(N3CCO[C@@H](C)C3)cc2)c2cnc3[nH]ccc3n12 [Example #5 (S), 1-((2R,4R)-4-Hydroxy-2-(3-(4-((S)-2-methylmorpholino)phenyl)-6H-imidazo[1,5-a]pyrrolo[2,3-e]pyrazin-1-yl)pyrrolidin-1-yl)ethanone] | < 10 nM |
| COCc1ccc(-c2nc([C@H]3C[C@@H](O)CN3C(C)=O)n3c2cnc2[nH]ccc23)cc1 [Example #7, 1-((2R,4R)-4-Hydroxy-2-(3-(4-(methoxymethyl)phenyl)-6H-imidazo[1,5-a]pyrrolo[2,3-e]pyrazin-1-yl)pyrrolidin-1-yl)ethanone] | 30 to 100 nM |
| CC(=O)N1C[C@H](O)C[C@@H]1c1nc(-c2ccc(Cn3nccn3)cc2)c2cnc3[nH]ccc3n12 [Example #8, 1-((2R,4R)-2-(3-(4-((2H-1,2,3-Triazol-2-yl)methyl)phenyl)-6H-imidazo[1,5-a]pyrrolo[2,3-e]pyrazin-1-yl)-4-hydroxypyrrolidin-1-yl)ethanone] | 30 to 100 nM |
| CC(=O)N1C[C@H](O)C[C@@H]1c1nc(-c2ccc(OCC(F)(F)F)cc2)c2cnc3[nH]ccc3n12 [Example #9, 1-((2R,4R)-4-Hydroxy-2-(3-(4-(2,2,2-trifluoroethoxy)phenyl)-6H-imidazo[1,5-a]pyrrolo[2,3-e]pyrazin-1-yl)pyrrolidin-1-yl)ethanone] | 30 to 100 nM |
| CC(=O)N1C[C@H](O)C[C@@H]1c1nc(-c2ccc(NC(C)C)cc2)c2cnc3[nH]ccc3n12 [Example #10, 1-((2R,4R)-4-Hydroxy-2-(3-(4-(isopropylamino)phenyl)-6H-imidazo[1,5-a]pyrrolo[2,3-e]pyrazin-1-yl)pyrrolidin-1-yl)ethanone] | 10 to 30 nM |
| CC(=O)N1C[C@H](O)C[C@@H]1c1nc(-c2ccc(NC(C)C)cc2)c2cnc3[nH]cc(C)c3n12 [Example #11, 1-((2R,4R)-4-Hydroxy-2-(3-(4-(isopropylamino)phenyl)-8-methyl-6H-imidazo[1,5-a]pyrrolo[2,3-e]pyrazin-1-yl)pyrrolidin-1-yl)ethanone] | 30 to 100 nM |
| CC(=O)N1C[C@H](O)C[C@@H]1c1nc(-c2ccc(C(F)(F)F)cc2)c2cnc3[nH]ccc3n12 [Example #A.1.4, 1-((2R,4R)-4-hydroxy-2-(3-(4-(trifluoromethyl)phenyl)-6H-imidazo[1,5-a]pyrrolo[2,3-e]pyrazin-1-yl)pyrrolidin-1-yl)ethanone] | 30 to 100 nM |
| CCNc1ccc(-c2nc([C@H]3C[C@@H](O)CN3C(C)=O)n3c2cnc2[nH]ccc23)cc1 [Example #F.1, 1-((2R,4R)-2-(3-(4-(ethylamino)phenyl)-6H-imidazo[1,5-a]pyrrolo[2,3-e]pyrazin-1-yl)-4-hydroxypyrrolidin-1-yl)ethanone] | 10 to 30 nM |
| COc1ccc(-c2nc([C@H]3C[C@@H](O)CN3C(C)=O)n3c2cnc2[nH]ccc23)cc1 [Example #F.1.4, 1-((2R,4R)-4-hydroxy-2-(3-(4-methoxyphenyl)-6H-imidazo[1,5-a]pyrrolo[2,3-e]pyrazin-1-yl)pyrrolidin-1-yl)ethanone] | 10 to 30 nM |
| CC(=O)N1C[C@H](O)C[C@@H]1c1nc(-c2ccc(C(=O)N3CCC(F)(F)CC3)cc2)c2cnc3[nH]ccc3n12 [F.1.1, 1-((2R,4R)-2-(3-(4-(4,4-difluoropiperidine-1-carbonyl)phenyl)-6H-imidazo[1,5-a]pyrrolo[2,3-e]pyrazin-1-yl)-4-hydroxypyrrolidin-1-yl)ethanone] | > 100 nM |
| CC(=O)N1C[C@H](O)C[C@@H]1c1nc(-c2ccc(N3CCCCC3)cc2)c2cnc3[nH]ccc3n12 [F.1.1.13, 1-((2R,4R)-4-hydroxy-2-(3-(4-(piperidin-1-yl)phenyl)-6H-imidazo[1,5-a]pyrrolo[2,3-e]pyrazin-1-yl)pyrrolidin-1-yl)ethanone] | < 10 nM |
| CO[C@H](C)c1ccc(-c2nc([C@H]3C[C@@H](O)CN3C(C)=O)n3c2cnc2[nH]ccc23)cc1 [F.1.2, 1-((2R,4R)-4-hydroxy-2-(3-(4-((R)-1-methoxyethyl)phenyl)-6H-imidazo[1,5-a]pyrrolo[2,3-e]pyrazin-1-yl)pyrrolidin-1-yl)ethanone] | 10 to 30 nM |
| CO[C@@H](C)c1ccc(-c2nc([C@H]3C[C@@H](O)CN3C(C)=O)n3c2cnc2[nH]ccc23)cc1 [F.1.3, 1-((2R,4R)-4-hydroxy-2-(3-(4-((S)-1-methoxyethyl)phenyl)-6H-imidazo[1,5-a]pyrrolo[2,3-e]pyrazin-1-yl)pyrrolidin-1-yl)ethanone] | < 10 nM |
| CC(=O)N1C[C@H](O)C[C@@H]1c1nc(-c2ccc(C(C)(C)O)c(F)c2)c2cnc3[nH]ccc3n12 [F.1.5, 1-((2R,4R)-2-(3-(3-fluoro-4-(2-hydroxypropan-2-yl)phenyl)-6H-imidazo[1,5-a]pyrrolo[2,3-e]pyrazin-1-yl)-4-hydroxypyrrolidin-1-yl)ethanone] | 10 to 30 nM |
| CC(=O)N1C[C@H](O)C[C@@H]1c1nc(-c2ccc3c(c2)OCCO3)c2cnc3[nH]ccc3n12 [F.1.6, 1-((2R,4R)-2-(3-(2,3-dihydrobenzo[b][1,4]dioxin-6-yl)-6H-imidazo[1,5-a]pyrrolo[2,3-e]pyrazin-1-yl)-4-hydroxypyrrolidin-1-yl)ethanone] | 30 to 100 nM |
